Here are results for three molecules from patent publication US20090156477A1, “Compositions and Methods for Regulating Inflammatory Responses” (Massachusetts Institute of Technology, priority 2005, published 2009).

One assay concerns Caco-2 cells. Briefly: Caco-2 proliferation assay (whole cell number). In kind it is cell-based, human. The conditions noted are these: for increased whole cell number: 100 ng/ml ligand, three days, vs PBS control. The protocol:
Caco-2 cells were grown to just prior to confluence, and T84 cells were grown to confluence. Each flask was washed with 20 ml PBS and treated with 3 ml trypsin-EDTA at 37° C. for 20-60 minutes until cells detached. Cells were centrifuged for 3 minutes at 195×g. The supernatant was aspirated, and the cells were resuspended in 10 ml media. The cell density was measured using an electronic cell counter, and the suspension was diluted to 50,000 cells/ml. The suspension was plated at 1 ml/well into 12-well tissue culture plates. After a 24 hour incubation in a 5% CO2, 37° C. humidified incubator, the media was aspirated, the wells were washed with serum free media, and the cells were supplemented with media containing 0.1% FBS. The wells were then supplemented with 10 μl PBS, 50 mM sodium chlorate, or 200 μM TM, and incubated for 24 hours. Subsequently, cells were supplemented with 100 ng/ml FGF1, FGF2, FGF7, or 10 μl PBS, and incubated for 72 hours. Wells were then washed twice with PBS and treated with 0.5 ml trypsin-EDTA/well and incubated at 37° C. until cells detached. Whole cell number was determined using an electronic cell counter. Data was averaged over three experiments, each consisting of four wells per condition.

A further assay deals with β-catenin. Briefly: Immunohistochemistry for β-catenin in Caco-2 cells. It counts as cell-based, human. The conditions noted are these: compared to PBS treatment. The procedure:
Caco-2 cells were grown to just prior to confluency on collagen IV coated glass slides. Cells were treated with PBS, FGF1, FGF2 and FGF7, and were incubated at 37° C. in a 5% CO2 humidified incubator for 1 hour, 4 hours, 24 hours or 48 hours, as noted. Cells were washed with PBS, fixed with 3.7% formalin for 10 minutes and washed again with PBS. Cells were treated with 0.1% Triton x-100 for 5 minutes to extract lipids. Cells were washed with PBS and preincubated with PBS supplemented with 1% bovine serum albumin. Primary antibodies were added for 4 hours at room temperature, and cells were washed with PBS. Primary antibodies used were as follows: rabbit anti-human ZO-1 (1:160; Zymed Laboratories, San Francisco, Calif.); mouse anti-human syndecan-1 (1:300; Santa Cruz Biotechnology); goat anti-human Fz-1 (1:125; Santa Cruz Biotechnology); rabbit anti-human caveolin-1 (1:250; Santa Cruz Biotechnology); goat anti-human glypican-1 (1:100; Santa Cruz Biotechnology); mouse anti-human E-cadherin (1:250; Zymed Laboratories); rabbit anti-human β-catenin (1:125; Cell Signaling Technology, Beverly, Mass.); and rabbit anti-human phospho-β-catenin (Ser33/37/Thr41; 1:125; Cell Signaling Technology, Beverly, Mass.).
Cells were then treated with secondary antibodies, Texas Red-labeled phalloidin (Molecular Probes, Eugene, Oreg.) or FLAER-FL1 (1:400; Protox Biotech, Victoria, BC, Canada) as appropriate for 1 hour in the dark at room temperature. […]
Cells, except those stained with phalloidin, were washed with PBS and stained with diamidino-2-phenylindole (DAPI) for 5 minutes at room temperature (Molecular Probes). […] Cells were examined by confocal microscopy (ZO-1 and phalloidin only), or by fluorescence microscopy. A Nikon HB10101AF fluorescence microscope was used and images were captured at room temperature using a Hitachi HVC20 camera and Scion image acquisition software. […]

As to FGF1: Recombinant human FGF1 from Amgen, the “effect of added agent on proliferative effect of FGF2 and FGF7” value in the assay on Caco-2 cells (TM 200 μM, FGF1 added to TM treated cells) is “restored the proliferative capacity of these ligands”. Moreover, in the assay with Caco-2 cells (over three days), the “proliferation (in words)” value was “did not induce the proliferation”. In addition, the “cytoplasmic β-catenin after 24 hours” value in the assay with β-catenin was “potentially reduced levels of cytoplasmic β-catenin”.

On to “FGF2: Recombinant human FGF2, produced as described”, for which the “increased whole cell number” value in the assay with Caco-2 cells is 20.2±7.4%. The “cytoplasmic β-catenin after 24 hours” value with β-catenin is listed as “induced markedly increased cytoplasmic β-catenin”.

B1: FGF7: Recombinant human FGF7 from Sigma (protein, UniProt P21781 32-194, looked up)
Fibroblast growth factor 7: CNDMTPEQMATNVNCSSPERHTRSYDYMEGGDIRVRRLFCRTQWYLRIDKRGKVKGTQEMKNNYNIMEIRTVAVGIVAIKGVESEFYLAMNKEGKLYAKKECNEDCNFKELILENHYNTYASAKWTHNGGEMFVALNQKGIPVRGKKTKKEQKTAHFLPMAIT
For B1, the “increased whole cell number” value in the assay with Caco-2 cells worked out at 16.4±8.9%. In addition, in the assay with β-catenin, the “cytoplasmic β-catenin after 24 hours” value is given as “induced markedly increased cytoplasmic β-catenin”.
